In patent publication US11673892B2, “Bicyclic compounds for use as RIP1 kinase inhibitors” (Genentech, Inc., priority 2017, dated 2023) one finds Ki data, which are given here for 26 compounds.

The target in the experiment is T1, human RIP1 kinase domain (2-375) (Homo sapiens, UniProt Q13546).
T1 construct: Purified human RIP1 kinase domain (2-375) (50 nM); made in house; host or cells: baculovirus-infected insect cells
T1 sequence (Q13546 2-375): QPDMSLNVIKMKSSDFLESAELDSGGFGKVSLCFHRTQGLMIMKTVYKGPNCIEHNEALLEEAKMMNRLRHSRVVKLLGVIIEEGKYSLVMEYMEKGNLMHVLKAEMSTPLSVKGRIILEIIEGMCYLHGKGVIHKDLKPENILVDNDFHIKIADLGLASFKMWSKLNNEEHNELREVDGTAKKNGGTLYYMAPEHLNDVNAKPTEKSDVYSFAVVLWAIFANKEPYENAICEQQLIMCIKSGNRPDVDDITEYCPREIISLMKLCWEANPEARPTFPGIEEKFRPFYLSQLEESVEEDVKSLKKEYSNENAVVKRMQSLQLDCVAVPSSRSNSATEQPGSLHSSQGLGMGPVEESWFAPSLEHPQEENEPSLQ
Nature of the experiment: RIP1 kinase inhibition biochemical assay (Transcreener ADP, fluorescence polarization). The settings on record: Ki app (Morrison tight-binding fit); 50 nM enzyme, 50 uM ATP, 2 hours incubation. How it is done: RIP1 Kinase Inhibition Assays (Biochemical Assay)
The compounds of the present invention were tested for their capacity to inhibit RIP1K activity as described below.
The ability of the receptor interacting protein kinase (RIPK1) to catalyze the hydrolysis of adenosine-5′-triphosphate (ATP) is monitored using the Transcreener ADP (adenosine-5′-diphosphate) assay (BellBrook Labs). Purified human RIP1 kinase domain (2-375) (50 nM) derived from a baculovirus-infected insect cell expression system is incubated with test compounds for 2 hours in 50 mM Hepes buffer (pH 7.5) containing 30 mM MgCl2, 1 mM dithiothreitol, 50 uM ATP, 0.002% Brij-35, and 0.5% dimethyl sulfoxide (DMSO). Reactions are quenched by the addition of 1× Bell Brooks Stop buffer B (20 mM Hepes (ph7.5), 40 mM ethylenediaminetetraacetic acid and 0.02% Brij-35) containing an additional 12 mM EDTA and 55 ug/mL ADP2 antibody and 4 nM ADP-AlexaFluor® 633 tracer. The tracer bound to the antibody is displaced by the ADP generated during the RIP1K reaction, which causes a decrease in fluorescence polarization that is measured by laser excitation at 633 nm with a FP microplate reader M1000. Fractional activity was plotted against test article concentration. Using Genedata Screener software (Genedata; Basel, Switzerland), the data were fit to the tight-binding apparent inhibition constant (Ki^app) Morrison equation [Williams, J. W. and Morrison, J. F. (1979) The kinetics of reversible tight-binding inhibition. Methods Enzymol 63: 437-67]. The following equation was used to calculate fractional activity and Ki^app:
[formula] where [E]T and [I]T are the total concentrations of active enzyme and test article, respectively.
Exemplary compounds of the present invention are provided in Table 1 along with their physiochemical characterization and in vitro RIP1 kinase inhibitory activity data. “Method” in the first column of each table refers to the synthetic method(s) used to prepare each compound as shown in the Examples above. In certain examples, chiral column retention times (min) are provided for certain stereoisomers. Unless otherwise specified, the stereochemistry shown in each structure represents relative configuration of a single stereoisomer, and absolute configuration (i.e., “R” and/or “S”) is arbitrarily assigned. In some embodiments, where the Method is described to include the separation of stereoisomers, a single stereoisomer of a compound of Table 1 is provided.

Take `CCOC(=O)[C@@H]1C[C@H]1c1nc2n(n1)[C@H](c1ccccc1)C[C@@H]2F` (mixture of isomers) [Example 21, ethyl rac-(1R,2R)-2-[(5S,7S)-7-fluoro-5-phenyl-6,7-dihydro-5H-pyrrolo[1,2-b][1,2,4]triazol-2-yl]cyclopropanecarboxylate]: the Ki turned out to be 100 nM. `N#C[C@H]1C[C@@H]1C(F)(F)c1nc2n(n1)[C@H](c1ccccc1)C[C@@H]2F` (mixture of isomers) [Example 113, rac-(1S,2S)-2-[difluoro-[(5S,7S)-7-fluoro-5-phenyl-6,7-dihydro-5H-pyrrolo[1,2-b][1,2,4]triazol-2-yl]methyl]cyclopropane carbonitrile] came in with a Ki of 4.8 nM. The compound `CCC(F)(F)c1nc2n(n1)C(c1ccccc1)CC2F` (racemic) [Example 2, Cis-2-(1,1-difluoropropyl)-7-fluoro-5-phenyl-6,7-dihydro-5H-pyrrolo[1,2-b][1,2,4]triazole] registered a Ki of 41 nM.

Turning to `F[C@@H]1C[C@H](c2ccccc2)n2nc(C(F)(F)C3CC3)nc21` (racemic) [Example 5], the Ki came to 27 nM. The figure for `CC[C@@H](F)c1nc2n(n1)[C@H](c1ccccc1)C[C@@H]2F` (racemic) [Example 7, rac-(5S,7S)-7-fluoro-5-phenyl-2-[rac-(1R)-1-fluoropropyl]-6,7-dihydro-5H-pyrrolo[1,2-b][1,2,4]triazole] is 4 nM. Next, `CC[C@H](F)c1nc2n(n1)[C@H](c1ccccc1)C[C@@H]2F` (racemic) [Example 8, rac-(5S,7S)-7-fluoro-5-phenyl-2-[rac-(1S)-1-fluoropropyl]-6,7-dihydro-5H-pyrrolo[1,2-b][1,2,4]triazole]: 14 nM; `CC(C)(C)C(F)(F)c1nc2n(n1)C(c1ccccc1)CC2F` (racemic) [Example 9, Cis-2-(1,1-difluoro-2,2-dimethyl-propyl)-7-fluoro-5-phenyl-6,7-dihydro-5H-pyrrolo[1,2-b][1,2,4]triazole]: 68 nM.

Turning to `CCCc1nc2n(n1)[C@@H](c1ccccc1)C[C@H]2F` (racemic) [Example 10, Cis-(5S,7S)-7-fluoro-5-phenyl-2-propyl-6,7-dihydro-5H-pyrrolo[1,2-b][1,2,4]triazole], the Ki was 78 nM.

As for `FC1CC(c2ccccc2)n2nc(C3CC3)nc21` (racemic) [Example 11, Cis-2-cyclopropyl-7-fluoro-5-phenyl-6,7-dihydro-5H-pyrrolo[1,2-b][1,2,4]triazole], the Ki was 320 nM. The figure for `FC1CC(c2ccccc2)n2nc(C(F)(F)F)nc21` (racemic) [Example 12, Cis-7-fluoro-5-phenyl-2-(trifluoromethyl)-6,7-dihydro-5H-pyrrolo[1,2-b][1,2,4]triazole] is 130 nM; for `N#CC1CC1c1nc2n(n1)[C@H](c1ccccc1)C[C@@H]2F` (mixture of isomers) [Example 16, Trans-2-[(5S,7S)-7-fluoro-5-phenyl-6,7-dihydro-5H-pyrrolo[1,2-b][1,2,4]triazol-2-yl]cyclopropanecarbonitrile] it is 51 nM. Next, `F[C@@H]1C[C@H]1C(F)(F)c1nc2n(n1)[C@H](c1ccccc1)C[C@@H]2F` (racemic) [Example 23, (5S,7S)-2-[difluoro-(rac-(1R,2R)-2-fluorocyclopropyl)methyl])-7-fluoro-5-phenyl-6,7-dihydro-5H-pyrrolo[1,2-b][1,2,4]triazole]: 4 nM; `COC[C@@H]1C[C@H]1c1nc2n(n1)[C@H](c1ccccc1)C[C@@H]2F` (racemic) [Example 24, (S,7S)-7-fluoro-5-phenyl-2-[rac-(1R,2R)-2-(methoxymethyl)cyclopropyl]-6,7-dihydro-5H-pyrrolo[1,2-b][1,2,4]triazole]: 910 nM; `N#CCOCc1nc2n(n1)[C@H](c1ccccc1)C[C@@H]2F` (racemic) [Example 51, 2-[(7-fluoro-5-phenyl-6,7-dihydro-5H-pyrrolo[1,2-b][1,2,4]triazol-2-yl)methoxy]acetonitrile]: 120 nM.

Compound `N#CC1CC(=Cc2nc3n(n2)[C@H](c2ccccc2)C[C@@H]3F)C1` (mixture of isomers) [Example 55, 3-[[rac-(5S,7S)-7-fluoro-5-phenyl-6,7-dihydro-5H-pyrrolo[1,2-b][1,2,4]triazol-2-yl]methylene]cyclobutanecarbonitrile] came in with a Ki of 130 nM. Compound `F[C@H]1C[C@@H](c2ccccc2)n2nc(-n3ncc4ccccc43)nc21` (racemic) [Example 73, 1-[rac-(5S,7S)-7-fluoro-5-phenyl-6,7-dihydro-5H-pyrrolo[1,2-b][1,2,4]triazol-2-yl]indazole] yielded a Ki of 6.2 nM.

The compound `CC(=O)c1cnn(-c2nc3n(n2)[C@H](c2ccccc2)C[C@@H]3F)c1` (racemic) [Example 78, 1-[1-[rac-(5S,7S)-7-fluoro-5-phenyl-6,7-dihydro-5H-pyrrolo[1,2-b][1,2,4]triazol-2-yl]pyrazol-4-yl]ethanone] had a Ki of 130 nM. Next, `F[C@H]1C[C@@H](c2ccccc2)n2nc(-n3nnc4cc(Cl)ccc43)nc21` (racemic) [Example 82, 5-chloro-1-[rac-(5S,7S)-7-fluoro-5-phenyl-6,7-dihydro-5H-pyrrolo[1,2-b][1,2,4]triazol-2-yl]benzotriazole]: 9.2 nM. In turn, `N#Cc1ccc2c(c1)nnn2-c1nc2n(n1)[C@H](c1ccccc1)C[C@@H]2F` (racemic) [Example 85, 1-[rac-(5S,7S)-7-fluoro-5-phenyl-6,7-dihydro-5H-pyrrolo[1,2-b][1,2,4]triazol-2-yl]benzotriazole-5-carbonitrile] had a Ki of 19 nM. On to `F[C@H]1C[C@@H](c2ccccc2)n2nc(-n3nnc4c3CCCC4)nc21` (racemic) [Example 86, 1-(rac-(5S,7S)-7-fluoro-5-phenyl-6,7-dihydro-5H-pyrrolo[1,2-b][1,2,4]triazol-2-yl]-4,5,6,7-tetrahydrobenzotriazole], for which the Ki stood at 18 nM. Next, `F[C@H]1C[C@@H](c2ccccc2)n2nc(-n3ncc4ccncc43)nc21` (racemic) [Example 87, 1-[rac-(5S,7S)-7-fluoro-5-phenyl-6,7-dihydro-5H-pyrrolo[1,2-b][1,2,4]triazol-2-yl]pyrazolo[3,4-c]pyridine]: 160 nM; `Cc1ccc2c(c1)nnn2-c1nc2n(n1)[C@H](c1ccccc1)C[C@@H]2F` (racemic) [Example 88, 5-methyl-1-[rac-(5S,7S)-7-fluoro-5-phenyl-6,7-dihydro-5H-pyrrolo[1,2-b][1,2,4]triazol-2-yl]benzotriazole]: 45 nM; `N#CCc1nc2n(n1)[C@H](c1ccccc1)C[C@@H]2F` (racemic) [Example 102, 2-[rac-(5S,7S)-7-fluoro-5-phenyl-6,7-dihydro-5H-pyrrolo[1,2-b][1,2,4]triazol-2-yl]acetonitrile]: 730 nM. Next, `CC(C)(C#N)c1nc2n(n1)[C@H](c1ccccc1)C[C@@H]2F` (racemic) [Example 103, 2-[rac-(5S,7S)-7-fluoro-5-phenyl-6,7-dihydro-5H-pyrrolo[1,2-b][1,2,4]triazol-2-yl]-2-methyl-propanenitrile]: 220 nM; `F[C@H]1C[C@@H](c2ccccc2)n2nc(C(F)(F)C3CC3)nc21` (single isomer, unassigned) [Example 13]: 3 nM. The figure for `CCCc1nc2n(n1)[C@H](c1ccccc1)C[C@@H]2F` (single isomer, unassigned) [Example 14] is 28 nM.
